Laboratory results: ChEMBL document CHEMBL5131555, “Antibacterial Nanoassembled Calix[4]arene Exposing Choline Units Inhibits Biofilm and Motility of Gram Negative Bacteria” (2022)
Activity calls are given as the source filed them. The calls are words filed in the database; no cut-off is given here.

Tests used:
[1] = test system: Cell membrane; assay: Induction of outer membrane permeabilization in Pseudomonas aeruginosa ATCC 9027 assessed as crystal violet uptake at MIC incubated for 60 mins by crystal violet staining based UV-VIS spectrophotometer ( Rvb = 53%)
[2] = test system: Escherichia coli; assay: Antibiofilm activity against Escherichia coli ATCC 10536 assessed as inhibition of biofilm formation at 1/2 times of MIC measured after 24 hrs by safranin staining based light microscopy; assay type: functional, organism-based
[3] = test system: Pseudomonas aeruginosa; assay: Antibiofilm activity against Pseudomonas aeruginosa ATCC 9027 assessed as inhibition of biofilm biomass at 1/2 times of MIC measured after 24 hrs by safranin staining based spectrophotometer EIA reader analysis; assay type: functional
[4] = test system: Pseudomonas aeruginosa; assay: Antibacterial activity against Pseudomonas aeruginosa DSM 102273 assessed as bacterial growth inhibition measured after 24 hrs by CLSI based microdilution method; assay type: functional
[5] = test system: Pseudomonas aeruginosa; assay: Bactericidal activity against ofloxacin resistant Pseudomonas aeruginosa 1 ocular isolate assessed as bacterial growth inhibition measured after 24 to 48 hrs by CLSI based microdilution method; assay type: functional; settings: time 24-48 hrs
[6] = test system: Pseudomonas aeruginosa; assay: Antibiofilm activity against Pseudomonas aeruginosa ATCC 9027 assessed as reduction in preformed bacterial biofilm at 37.6 microg/ml measured after 24 hrs by safranin staining based spectrophotometer EIA reader analysis; assay type: functional; design: scale not given: the % may be the effect or the level left; settings: dose 37.6 µg/ml
[7] = test system: Escherichia coli; assay: Antibiofilm activity against Escherichia coli ATCC 10536 assessed as inhibition of biofilm biomass at 1/4 times of MIC measured after 24 hrs by safranin staining based spectrophotometer EIA reader analysis; assay type: functional
[8] = test system: Escherichia coli; assay: Antibacterial activity against Escherichia coli ATCC 10536 assessed as bacterial growth inhibition measured after 24 hrs by CLSI based microdilution method; assay type: functional
[9] = test system: Escherichia coli; assay: Bactericidal activity against Escherichia coli ATCC 10536 assessed as planktonic growth inhibition at 1/8 times of MIC measured after 24 hrs by spectrophotometer EIA reader analysis; assay type: functional
[10] = test system: Escherichia coli; assay: Antibiofilm activity against Escherichia coli ATCC 10536 assessed as inhibition of biofilm formation at 1/4 times of MIC measured after 24 hrs by safranin staining based light microscopy; assay type: functional, organism-based
[11] = test system: Escherichia coli; assay: Effect on swarming capacity of Escherichia coli ATCC 10536 assessed as reduction of motility zone at 1/2 times of MIC incubated for 24 hrs; assay type: functional; design: scale not given: the % may be the effect or the level left
[12] = test system: Escherichia coli; assay: Antibiofilm activity against Escherichia coli ATCC 10536 assessed as formation of looser colonies at 1/2 times of MIC measured after 24 hrs by safranin staining based light microscopy; assay type: functional, organism-based
[13] = test system: Pseudomonas aeruginosa; assay: Antibiofilm activity against Pseudomonas aeruginosa ATCC 9027 assessed as reduction in preformed bacterial biofilm at 18.8 microg/ml measured after 24 hrs by safranin staining based spectrophotometer EIA reader analysis; assay type: functional; design: scale not given: the % may be the effect or the level left; settings: dose 18.8 µg/ml
[14] = test system: Pseudomonas aeruginosa; assay: Antibacterial activity against Pseudomonas aeruginosa ATCC 9027 assessed as bacterial growth inhibition measured after 24 hrs by CLSI based microdilution method; assay type: functional
[15] = test system: Escherichia coli; assay: Antibiofilm activity against Escherichia coli ATCC 10536 assessed as inhibition of biofilm biomass at 1/2 times of MIC measured after 24 hrs by safranin staining based spectrophotometer EIA reader analysis; assay type: functional
[16] = test system: Pseudomonas aeruginosa; assay: Bactericidal activity against Pseudomonas aeruginosa ATCC 9027 assessed as bacterial growth inhibition measured after 24 to 48 hrs by CLSI based microdilution method; assay type: functional; settings: time 24-48 hrs
[17] = test system: Pseudomonas aeruginosa; assay: Antibiofilm activity against ofloxacin resistant Pseudomonas aeruginosa 1 ocular isolate assessed as inhibition of biofilm biomass at 1/2 times of MIC measured after 24 hrs by safranin staining based spectrophotometer EIA reader analysis; assay type: functional
[18] = test system: Escherichia coli; assay: Bactericidal activity against Escherichia coli ATCC 10536 assessed as planktonic growth inhibition at 1/4 times of MIC measured after 24 hrs by spectrophotometer EIA reader analysis; assay type: functional
[19] = test system: Pseudomonas aeruginosa; assay: Bactericidal activity against Pseudomonas aeruginosa DSM 102273 assessed as bacterial growth inhibition measured after 24 to 48 hrs by CLSI based microdilution method; assay type: functional; settings: time 24-48 hrs
[20] = test system: Escherichia coli; assay: Antibiofilm activity against Escherichia coli ATCC 10536 assessed as inhibition of biofilm biomass at 1/8 times of MIC measured after 24 hrs by safranin staining based spectrophotometer EIA reader analysis; assay type: functional
[21] = test system: Pseudomonas aeruginosa; assay: Antibiofilm activity against Pseudomonas aeruginosa ATCC 9027 assessed as reduction in preformed bacterial biofilm at 75 microg/ml measured after 24 hrs by safranin staining based spectrophotometer EIA reader analysis; assay type: functional; design: scale not given: the % may be the effect or the level left; settings: dose 75 µg/ml
[22] = test system: Pseudomonas aeruginosa; assay: Antibacterial activity against ofloxacin resistant Pseudomonas aeruginosa 1 ocular isolate assessed as bacterial growth inhibition measured after 24 hrs by CLSI based microdilution method; assay type: functional
[23] = test system: Escherichia coli; assay: Antibiofilm activity against Escherichia coli ATCC 10536 assessed as reduction in preformed bacterial biofilm at 150 microg/ml measured after 24 hrs by safranin staining based spectrophotometer EIA reader analysis; assay type: functional; design: scale not given: the % may be the effect or the level left; settings: dose 150 µg/ml
[24] = test system: Pseudomonas aeruginosa; assay: Effect on swarming capacity of Pseudomonas aeruginosa ATCC 9027 assessed as reduction of motility zone at 1/2 times of MIC incubated for 24 hrs; assay type: functional; design: scale not given: the % may be the effect or the level left
[25] = test system: Cell membrane; assay: Induction of outer membrane permeabilization in Escherichia coli ATCC 10536 assessed as crystal violet uptake at MIC incubated for 60 mins by crystal violet staining based UV-VIS spectrophotometer ( Rvb = 56%)
[26] = test system: Escherichia coli; assay: Antibiofilm activity against Escherichia coli ATCC 10536 assessed as formation of looser colonies at 1/4 times of MIC measured after 24 hrs by safranin staining based light microscopy; assay type: functional, organism-based
[27] = test system: Pseudomonas aeruginosa; assay: Effect on twitching capacity of ofloxacin resistant Pseudomonas aeruginosa 1 ocular isolate assessed as reduction of motility zone at 1/2 times of MIC incubated for 24 hrs; assay type: functional; design: scale not given: the % may be the effect or the level left
[28] = test system: Pseudomonas aeruginosa; assay: Effect on twitching capacity of Pseudomonas aeruginosa ATCC 9027 assessed as reduction of motility zone at 1/2 times of MIC incubated for 24 hrs; assay type: functional; design: scale not given: the % may be the effect or the level left
[29] = test system: Escherichia coli; assay: Bactericidal activity against Escherichia coli ATCC 10536 assessed as bacterial growth inhibition measured after 24 to 48 hrs by CLSI based microdilution method; assay type: functional; settings: time 24-48 hrs
[30] = test system: Escherichia coli; assay: Effect on twitching capacity of Escherichia coli ATCC 10536 assessed as reduction of motility zone at 1/2 times of MIC incubated for 24 hrs; assay type: functional; design: scale not given: the % may be the effect or the level left

CCCCCCCCCCCCOc1c2cc(C[N+](C)(C)CCO)cc1Cc1cc(C[N+](C)(C)CCO)cc(c1OCCCCCCCCCCCC)Cc1cc(C[N+](C)(C)CCO)cc(c1OCCCCCCCCCCCC)Cc1cc(C[N+](C)(C)CCO)cc(c1OCCCCCCCCCCCC)C2.[Cl-].[Cl-].[Cl-].[Cl-]
Activity [1]: 71.6% | Activity [2]: Active | inhibition (INH) [3]: 40% | MIC [4]: 18.8 µg/mL | MBC [5]: 18.8 µg/mL | Activity [6]: 37% | inhibition (INH) [7]: 77.6% | MIC [8]: 18.8 µg/mL | inhibition (INH) [9]: 1.8% | Activity [10]: Active | Activity [11]: 50% | Activity [12]: Active | Activity [13]: 37% | MIC [14]: 9.4 µg/mL | inhibition (INH) [15]: 90.4% | MBC [16]: 18.8 µg/mL | inhibition (INH) [17]: 40% | inhibition (INH) [18]: 14.5% | MBC [19]: 18.8 µg/mL | inhibition (INH) [20]: 51% | Activity [21]: 58% | MIC [22]: 9.4 µg/mL | Activity [23]: 66.5% | Activity [24]: 50% | Activity [25]: 78.8% | Activity [26]: Active | Activity [27]: 50% | Activity [28]: 50% | MBC [29]: 18.8 µg/mL | Activity [30]: 50%
